The source of these data is patent US9821002B2, “Method for alleviating radiation injury with isorhamnetin-3-O-β-D-glucoside” (Sinotai Oncology Associate., Ltd., priority 2015, dated 2017).

Test [1] concerns NMuMG cells. Put plainly: Apoptosis assay (FITC Annexin V/PI) after ultraviolet irradiation. The test is classed as cell-based, mouse. To be noted: 2 h pretreatment, ultraviolet 30 mJ/cm^2, 24 hours, mean ± SEM. Here is the method:
Four groups of NMuMG cells (i.e., a normal control group referred to as Normal Control Group 1-A, an ultraviolet control group referred to as UV Control Group 1-A, and two experimental groups referred to as Experimental Groups 1-A to 2-A) and four groups of HaCaT cells (i.e., a normal control group referred to as Normal Control Group 1-B, an ultraviolet control group referred to as UV Control Group 1-B, and two experimental groups referred to as Experimental Groups 1-B to 2-B), were prepared based on the procedure set forth in “Source and cultivation of cell lines” of “Experimental materials”. The cells in each group were cultivated using 5 mL of a corresponding medium shown in Table 1 and a 6-cm Petri dish in an incubator (37° C., 5% CO2) for 24 hours. […]
Subsequently, the stained cells were analyzed using BD Accuri™ C6 flow cytometry, in which cells that could be stained with FITC Annexin V but not with PI (i.e., FITC Annexin V positive and PI negative) represented cells that were induced with early apoptosis; cells stained with both FITC Annexin V and PI (i.e., FITC Annexin V positive and PI positive) represented cells that were induced with late apoptosis; and cells that could not be stained with FITC Annexin V and PI (i.e., FITC Annexin V negative and PI negative) represented viable cells. […]

The subject of test [2] is NMuMG cells. Briefly: Cell cycle analysis (PI flow cytometry) after X-ray irradiation. To be noted: 2 h pretreatment, X-ray 20 Gy, 96 hours, mean ± SEM. The test is classed as cell-based, mouse. Here is the method: Four groups of NMuMG cells (i.e., a normal control group, an X-ray control group, and two experimental groups referred to as Experimental Groups 1 to 2) were prepared based on the procedure set forth in “Source and cultivation of cell lines” of “Experimental materials”. NMuMG cells in each group were cultivated using 5 mL of a corresponding medium shown in Table 1 and a 6-cm Petri dish in an amount of 2.5×10^5 cells per dish. The cultivation was conducted in an incubator (37° C., 5% CO2) for 24 hours.
Subsequently, medium was replaced with fresh medium, and a suitable amount of isorhamnetin-3-O-β-D-glucoside stock solution was added to the obtained culture in each of Experimental Groups 1 and 2, such that the final concentration of isorhamnetin-3-O-β-D-glucoside in the culture in Experimental Group 1 was 15 μM, and the final concentration of isorhamnetin-3-O-β-D-glucoside in the culture in Experimental Group 2 was 30 μM. Isorhamnetin-3-O-β-D-glucoside stock solution was not added to the cultures in the normal control group and the X-ray control group.
The culture in each group was then cultivated in an incubator (37° C., 5% CO2) for two hours. The resultant culture was used for the following cell cycle analysis.
The cultures in the X-ray control group and Experimental Groups 1 to 2, prepared according to section A of “Experimental procedures” in this example, were subjected to X-ray irradiation using a linear accelerator at a dose of 20 Gy. The culture in the normal control group received no X-ray irradiation treatment. The culture in each group was cultivated in an incubator (37° C., 5% CO2) for 96 hours, followed by centrifugation at 25° C. and 1200 rpm for 3 minutes. The supernatant was removed, and the precipitate thus obtained was washed with cold PBS (pH 7.4), followed by fixing the cells with 1 mL of cold methanol. The fixed cells thus obtained were left standing at −20° C. overnight. Following this, the fixed cells were washed with cold PBS (pH 7.4), and 250 μL of cold DNA dying solution which was prepared in ddH2O, containing 200 μg/mL RNase A solution (Sigma-Aldrich), 50 μg/mL propidium iodide (PI)(Sigma-Aldrich), and 0.1% (v/v) Triton X-100, was added to re-suspend the cells in each group. The cells were kept in the dark for 30 minutes at 37° C. to obtain stained cells.
Subsequently, the stained cells thus obtained were subjected to cell cycle analysis using BD Accuri™ C6 flow cytometer (BD Biosciences), and 1.0×10^6 cells were analyzed in each analysis. The cells emitted fluorescence when excited by a laser beam of argon ion at 488 nm, and the fluorescence intensity was detected at a wavelength of 585 nm. The percentage of the cells in each cell cycle phase was analyzed using BD Accuri™ C6 software (BD Biosciences).

Take `COc1cc(-c2oc3cc(O)cc(O)c3c(=O)c2O[C@@H]2O[C@H](CO)[C@@H](O)[C@H](O)[C@H]2O)ccc1O` [isorhamnetin-3-O-β-D-glucoside]: the Apoptosis percentage with NMuMG cells [1] (15 μM) is 10.6 ± 2.8%. For the same molecule, the Apoptosis percentage in the test with NMuMG cells [1] (30 μM) is 10.5 ± 2.5 %. Also, in the test with NMuMG cells [2] (15 μM), the “The percentage of the cells in each cell cycle phase: G0/G1” value is reported as 21 ± 4.31 %, the “The percentage of the cells in each cell cycle phase: G2/M” value is reported as 58.76 ± 8.97%, the “The percentage of the cells in each cell cycle phase: S” value was determined as 6.4 ± 0.28% and the “The percentage of the cells in each cell cycle phase: Sub-G1” value worked out at 16.11 ± 2.03 %. Moreover, in the test on NMuMG cells [2] (30 μM), the “The percentage of the cells in each cell cycle phase: G0/G1” value was determined as 22.25 ± 4.87 %, the “The percentage of the cells in each cell cycle phase: G2/M” value was 59.63 ± 10.78%, the “The percentage of the cells in each cell cycle phase: S” value was 5.88 ± 1.2% and the “The percentage of the cells in each cell cycle phase: Sub-G1” value was found to be 13.88 ± 1.46 %.
